In patent US9296723B2, “NAMPT inhibitors” (AbbVie Inc., priority 2012, dated 2016):

Columns and labels:
NAMPT = NAMPT (Homo sapiens, UniProt P43490); assay: Time-Resolved Fluorescence Resonance Energy Transfer (TR-FRET) Binding Assay of NAMPT; settings: 6.8 nM NAMPT, 200 nM probe, equilibrated 3 hours, no substrates
Procedure: Determination of the utility of compounds having Formula (I) as binders to and inhibitors of NAMPT was performed using Time-Resolved Fluorescence Resonance Energy Transfer (TR-FRET) binding assays.
Time-Resolved Fluorescence Resonance Energy Transfer (TR-FRET) Binding Assay of NAMPT
Six L were transferred to 384-well low-volume plates ([…] #3673). To this, 12 L of a 1.5× solution containing enzyme, probe and antibody were added. […] Reactions were equilibrated at room temperature for 3 hours prior to reading on an Envision multi-label plate reader (Perkin Elmer; Ex=337 nm, Em=520 and 495 nm). Time-resolved FRET ratios (Em520/Em495) were normalized to controls, plotted as a function of compound concentration and fit with the four-parameter logistic equation to determine IC50s.

PC3 cells = assay: NAMPT Cell Proliferation Assay (Cell Titer Glo); assay type: cell-based; settings: Homo sapiens, PC-3, 120 h, incubated 5 days, cell viability
Procedure: NAMPT Cell Proliferation Assay
PC3 cells were seeded in 96-well black plates (Corning #3904) at 500 cells/well in 90 µl of RPMI media containing 10% heat-inactivated FBS and incubated overnight at 37° C. and 5% CO2 to allow cells to attach to wells. The following day, test compounds were serially diluted in neat DMSO to 1000× final concentrations prior to dilution with RPMI media to 10× and 1% DMSO. Ten L of the 10× compounds were then transferred to wells containing cells to produce a dose response of 10-fold dilutions from […]. Cells were incubated for 5 days at 37° C. and 5% CO2, then cell viability was measured using Cell Titer Glo reagent (Promega #G7571). Percent inhibition values were calculated and fitted to a sigmoidal dose response curves using Assay Explorer software to determine IC50s.

NAMPT, sequence (P43490 whole entry): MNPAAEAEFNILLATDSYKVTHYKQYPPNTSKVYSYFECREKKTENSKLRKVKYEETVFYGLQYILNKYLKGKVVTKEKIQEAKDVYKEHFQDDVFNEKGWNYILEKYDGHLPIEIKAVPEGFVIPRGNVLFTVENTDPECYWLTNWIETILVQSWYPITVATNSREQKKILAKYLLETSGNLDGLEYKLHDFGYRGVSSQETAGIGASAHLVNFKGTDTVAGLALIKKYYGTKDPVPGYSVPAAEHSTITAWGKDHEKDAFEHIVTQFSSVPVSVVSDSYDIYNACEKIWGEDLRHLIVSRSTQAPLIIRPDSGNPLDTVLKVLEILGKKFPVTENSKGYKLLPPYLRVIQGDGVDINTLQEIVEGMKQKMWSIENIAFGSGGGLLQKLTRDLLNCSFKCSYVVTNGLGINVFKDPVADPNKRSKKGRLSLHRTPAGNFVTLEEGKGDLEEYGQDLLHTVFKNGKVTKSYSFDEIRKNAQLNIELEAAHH

SMILES	IC50 (NAMPT)	IC50 (PC3 cells)
Cn1cccc1C(=O)N1CCC(Oc2ccc(NC(=O)N3CC(c4cccnc4)C3)cc2)CC1 [Example 36, N-[4-({1-[(1-methyl-1H-pyrrol-2-yl)carbonyl]piperidin-4-yl}oxy)phenyl]-3-(pyridin-3-yl)azetidine-1-carboxamide]	27.3 nM	59.5 nM
COCC(=O)N1CCC(Oc2ccc(NC(=O)N3CC(c4cccnc4)C3)cc2)CC1 [Example 48, N-(4-{[1-(methoxyacetyl)piperidin-4-yl]oxy}phenyl)-3-(pyridin-3-yl)azetidine-1-carboxamide]	206 nM	95.8 nM
CC(C)(C)OC(=O)N1CC[C@@H](Oc2ccc(NC(=O)N3CC(c4cccnc4)C3)cc2)C1 [Example 60, tert-butyl (3R)-3-[4-({[3-(pyridin-3-yl)azetidin-1-yl]carbonyl}amino)phenoxy]pyrrolidine-1-carboxylate]	55.4 nM	74.9 nM
CC(C)C(=O)N1CCC(c2ccc(NC(=O)N3CC(c4cccnc4)C3)cc2)C1 (centres unmarked) [Example 65, N-{4-[1-(2-methylpropanoyl)pyrrolidin-3-yl]phenyl}-3-(pyridin-3-yl)azetidine-1-carboxamide]	56.6 nM	62.2 nM
O=C(Nc1ccc(C2CCN(C(=O)[C@@H]3CCCO3)C2)cc1)N1CC(c2cccnc2)C1 (stereo partly drawn) [Example 66, 3-(pyridin-3-yl)-N-(4-{1-[(2S)-tetrahydrofuran-2-ylcarbonyl]pyrrolidin-3-yl}phenyl)azetidine-1-carboxamide]	86 nM	82.2 nM
O=C(CC1CC1)N1CCC(c2ccc(NC(=O)N3CC(c4cccnc4)C3)cc2)C1 (centres unmarked) [Example 69, N-{4-[1-(cyclopropylacetyl)pyrrolidin-3-yl]phenyl}-3-(pyridin-3-yl)azetidine-1-carboxamide]	44.8 nM	61.3 nM
O=C(Nc1ccc(O[C@@H]2CCN(C(=O)C3CCOC3)C2)cc1)N1CC(c2cccnc2)C1 (stereo partly drawn) [Example 80, 3-(pyridin-3-yl)-N-(4-{[(3R)-1-(tetrahydrofuran-3-ylcarbonyl)pyrrolidin-3-yl]oxy}phenyl)azetidine-1-carboxamide]	122 nM	63.2 nM
O=C(CC1CC1)N1CCC(c2ccc(NC(=O)N3CC(c4cccnn4)C3)cc2)CC1 [Example 347, N-{4-[1-(cyclopropylacetyl)piperidin-4-yl]phenyl}-3-(pyridazin-3-yl)azetidine-1-carboxamide]	–	1550 nM
O=C(Nc1ccc(CC2CCN(C(=O)c3ccccc3)CC2)cc1)N1CC(c2cccnn2)C1 [Example 348, N-{4-[(1-benzoylpiperidin-4-yl)methyl]phenyl}-3-(pyridazin-3-yl)azetidine-1-carboxamide]	–	803 nM
O=C(Nc1ccc(CC2CCN(C(=O)c3ccccc3F)CC2)cc1)N1CC(c2cccnn2)C1 [Example 349, N-(4-{[1-(2-fluorobenzoyl)piperidin-4-yl]methyl}phenyl)-3-(pyridazin-3-yl)azetidine-1-carboxamide]	–	772 nM
CC(C)(C)C(=O)N1CCC(Cc2ccc(NC(=O)N3CC(c4cccnn4)C3)cc2)CC1 [Example 350, N-(4-{[1-(2,2-dimethylpropanoyl)piperidin-4-yl]methyl}phenyl)-3-(pyridazin-3-yl)azetidine-1-carboxamide]	–	743 nM
CC(C)(C)CC(=O)N1CCC(Cc2ccc(NC(=O)N3CC(c4cccnn4)C3)cc2)CC1 [Example 351, N-(4-{[1-(3,3-dimethylbutanoyl)piperidin-4-yl]methyl}phenyl)-3-(pyridazin-3-yl)azetidine-1-carboxamide]	–	655 nM
CCC(CC)C(=O)N1CCC(Cc2ccc(NC(=O)N3CC(c4cccnn4)C3)cc2)CC1 [Example 352, N-(4-{[1-(2-ethylbutanoyl)piperidin-4-yl]methyl}phenyl)-3-(pyridazin-3-yl)azetidine-1-carboxamide]	–	607 nM
CC(C)C(=O)N1CCC(Cc2ccc(NC(=O)N3CC(c4cccnn4)C3)cc2)CC1 [Example 354, N-(4-{[1-(2-methylpropanoyl)piperidin-4-yl]methyl}phenyl)-3-(pyridazin-3-yl)azetidine-1-carboxamide]	–	994 nM
CC(=O)N1CCC(Cc2ccc(NC(=O)N3CC(c4cccnn4)C3)cc2)CC1 [Example 355, N-{4-[(1-acetylpiperidin-4-yl)methyl]phenyl}-3-(pyridazin-3-yl)azetidine-1-carboxamide]	–	7310 nM
CC[C@H](C)C(=O)N1CCC(Cc2ccc(NC(=O)N3CC(c4cccnn4)C3)cc2)CC1 [Example 356, N-[4-({1-[(2S)-2-methylbutanoyl]piperidin-4-yl}methyl)phenyl]-3-(pyridazin-3-yl)azetidine-1-carboxamide]	–	791 nM
CC1(C(=O)N2CCC(Cc3ccc(NC(=O)N4CC(c5cccnn5)C4)cc3)CC2)CC1 [Example 357, N-[4-({1-[(1-methylcyclopropyl)carbonyl]piperidin-4-yl}methyl)phenyl]-3-(pyridazin-3-yl)azetidine-1-carboxamide]	–	703 nM

Continued by falling IC50 (PC3 cells), values first:

IC50 (NAMPT)	IC50 (PC3 cells)	SMILES
86.2 nM	59.1 nM	O=C(Nc1ccc(C2CCN(C(=O)C3CCOC3)C2)cc1)N1CC(c2cccnc2)C1 (centres unmarked) [Example 68, 3-(pyridin-3-yl)-N-{4-[1-(tetrahydrofuran-3-ylcarbonyl)pyrrolidin-3-yl]phenyl}azetidine-1-carboxamide]
117 nM	58.9 nM	O=C(Nc1ccc(C2CCN(C(=O)[C@H]3CCCO3)CC2)cc1)N1CC(c2cccnc2)C1 [Example 54, 3-(pyridin-3-yl)-N-(4-{1-[(2R)-tetrahydrofuran-2-ylcarbonyl]piperidin-4-yl}phenyl)azetidine-1-carboxamide]
92.9 nM	41.4 nM	O=C(Nc1ccc(O[C@@H]2CCN(C(=O)[C@H]3CCCO3)C2)cc1)N1CC(c2cccnc2)C1 [Example 79, 3-(pyridin-3-yl)-N-[4-({(3R)-1-[(2R)-tetrahydrofuran-2-ylcarbonyl]pyrrolidin-3-yl}oxy)phenyl]azetidine-1-carboxamide]
56.8 nM	28.3 nM	O=C(Nc1ccc(OC2CCN(C(=O)[C@H]3CCCO3)CC2)cc1)N1CC(c2cccnc2)C1 [Example 5, 3-(pyridin-3-yl)-N-[4-({1-[(2R)-tetrahydrofuran-2-ylcarbonyl]piperidin-4-yl}oxy)phenyl]azetidine-1-carboxamide]
83.6 nM	22.4 nM	O=C(CC1CCOCC1)N1CC[C@@H](Oc2ccc(NC(=O)N3CC(c4cccnc4)C3)cc2)C1 [Example 76, 3-(pyridin-3-yl)-N-(4-{[(3R)-1-(tetrahydro-2H-pyran-4-ylacetyl)pyrrolidin-3-yl]oxy}phenyl)azetidine-1-carboxamide]
30.9 nM	17.8 nM	O=C(CC1CC1)N1CC[C@@H](Oc2ccc(NC(=O)N3CC(c4cccnc4)C3)cc2)C1 [Example 81, N-(4-{[(3R)-1-(cyclopropylacetyl)pyrrolidin-3-yl]oxy}phenyl)-3-(pyridin-3-yl)azetidine-1-carboxamide]
61.9 nM	17.3 nM	CC(C)C(=O)N1CC[C@@H](Oc2ccc(NC(=O)N3CC(c4cccnc4)C3)cc2)C1 [Example 77, N-(4-{[(3R)-1-(2-methylpropanoyl)pyrrolidin-3-yl]oxy}phenyl)-3-(pyridin-3-yl)azetidine-1-carboxamide]
27.4 nM	8.83 nM	CC(C)C(=O)N1CCC(c2ccc(NC(=O)N3CC(c4cccnc4)C3)cc2)CC1 [Example 56, N-{4-[1-(2-methylpropanoyl)piperidin-4-yl]phenyl}-3-(pyridin-3-yl)azetidine-1-carboxamide]
15.6 nM	8.57 nM	O=C(CC1CCOCC1)N1CCC(c2ccc(NC(=O)N3CC(c4cccnc4)C3)cc2)CC1 [Example 50, 3-(pyridin-3-yl)-N-{4-[1-(tetrahydro-2H-pyran-4-ylacetyl)piperidin-4-yl]phenyl}azetidine-1-carboxamide]
29.3 nM	8.06 nM	O=C(CC1CC1)N1CCC(c2ccc(NC(=O)N3CC(c4cccnc4)C3)cc2)CC1 [Example 55, N-{4-[1-(cyclopropylacetyl)piperidin-4-yl]phenyl}-3-(pyridin-3-yl)azetidine-1-carboxamide]
17.4 nM	7.86 nM	O=C(CC(F)(F)F)N1CCC(c2ccc(NC(=O)N3CC(c4cccnc4)C3)cc2)CC1 [Example 58, 3-(pyridin-3-yl)-N-{4-[1-(3,3,3-trifluoropropanoyl)piperidin-4-yl]phenyl}azetidine-1-carboxamide]
9.73 nM	7.24 nM	CC(C)(O)C(=O)N1CC[C@@H](Oc2ccc(NC(=O)N3CC(c4cccnc4)C3)cc2)C1 [Example 82, N-(4-{[(3R)-1-(2-hydroxy-2-methylpropanoyl)pyrrolidin-3-yl]oxy}phenyl)-3-(pyridin-3-yl)azetidine-1-carboxamide]
38.9 nM	6.78 nM	O=C(Nc1ccc(C2CCN(C(=O)[C@@H]3CCCO3)CC2)cc1)N1CC(c2cccnc2)C1 [Example 52, 3-(pyridin-3-yl)-N-(4-{1-[(2S)-tetrahydrofuran-2-ylcarbonyl]piperidin-4-yl}phenyl)azetidine-1-carboxamide]
